One assay concerns the target CDK7/CycH/MAT1 (Homo sapiens, UniProt P50613). Put plainly: Kinase Glo (ADP-Glo) biochemical assay, CDK7. Conditions: CDK7/CycH/MAT1 40 ng, ATP 1 μM, 60 minutes at RT, luminescence. The protocol:
Materials: • Assay Buffer: 50 mM HEPES, 3 mM MgCl2, 3 mM MnCl2, 1 mM DTT, 3 μM Na3VO4, pH 7.5 • Substrate RB • CTF Peptide (ProQinase #: 0040-0000-6) • Enzymes • CDK7/CycH/MAT1 (ProQinase #: 0366-0360-4) • ADP-Glo™ Assay (Promega #: V9101) • ATP: 10 mM • ADP-Glo™ Reagent • Kinase Detection Reagent • 384-well white assay plates
A ten point serial dilution of compound was prepared at 5X concentration in assay buffer with the final assay concentrations starting at 30 μM, 10 μM, 3 μM, 1 μM . . . 0 μM. Enzyme, substrate, and ATP were used at 40 ng, 200 ng (or 400 ng)* and 1 μM, respectively. The assay plate was set up by mixing the components in a total reaction volume of 10 μL per well. The plate was centrifuged gently for 10 seconds and incubated at room temperature (RT) for 60 minutes in the dark. The ADP-Glo Reagent and kinase detection reagent were added and incubated as recommended. The reaction was quantified by measuring luminescence on the Perkin Elmer Envision plate reader.
(In general: Kinase-Glo reads ATP consumption through a luciferase reaction.)

The test system of assay [1] is MiaPaCa2 pancreatic cancer cell line. Put plainly: Cell viability assay (Cell Titer Glo), MiaPaCa2. The assay is classed as cell-based. Conditions: Homo sapiens, MIA PaCa-2; Table 7a; pancreatic cancer cell line, 72 hour incubation. The protocol:
(§1) Materials: • Cell Lines (Treated according to ATCC guidelines) • Cell Titer Glo (Promega Cat #G7572) • DMSO • 96-well White Tissue Culture Treated Plates (Perkin Elmer Cat #60005680)
(§2) Cells were seeded in a white 96-well tissue culture treated plate at a density of 1500 cells in 90 μL of media per well and allowed to settle overnight. A ten point serial dilution of drugs was prepared at 10×concentration in media with the final assay concentrations starting at 30 μM, 10 μM, 3 μM, 1 μM, 0.3 μM . . . 0 μM. A dilution of DMSO was included as a control. The assay was set up by adding 10 μL of the corresponding drug to each well in duplicate, followed by a 72 hour incubation at 37° C., 5% CO2. Cell viability was quantified by adding 90 μL of Cell Titer Glo to each well and incubating at room temperature for 10 minutes. The reaction was quantified by measuring luminescence using the Envision Plate Reader. Data was analyzed using Graphpad Prism 7 software.

Assay [2] deals with HPAC pancreatic cancer cell line. Put plainly: Cell viability assay (Cell Titer Glo), HPAC. Conditions: Homo sapiens, HPAC; Table 7a; pancreatic cancer cell line, 72 hour incubation. The assay is classed as cell-based. How it is done:
as §1, §2
For orientation: In ATP-based viability assays light output follows the ATP content of the culture.

For assay [3], the system named is Kasumi1 leukemia cancer cell line. Briefly: Cell viability assay (Cell Titer Glo), Kasumi1. The assay is classed as cell-based. Conditions: Homo sapiens, Kasumi 1, Table 7a, 72 hour incubation. How it is done: as §1, §2
Assay [4] has as its system A2780 ovarian cancer cell line. Put plainly: Cell viability assay (Cell Titer Glo), A2780. Type of assay: cell-based. Conditions: Homo sapiens, A2780, Table 7a, 72 hour incubation. The protocol:
as §1, §2

Structures can show the parent of a compound that is named as a salt.

CDK7/CycH/MAT1, sequence (P50613 whole entry): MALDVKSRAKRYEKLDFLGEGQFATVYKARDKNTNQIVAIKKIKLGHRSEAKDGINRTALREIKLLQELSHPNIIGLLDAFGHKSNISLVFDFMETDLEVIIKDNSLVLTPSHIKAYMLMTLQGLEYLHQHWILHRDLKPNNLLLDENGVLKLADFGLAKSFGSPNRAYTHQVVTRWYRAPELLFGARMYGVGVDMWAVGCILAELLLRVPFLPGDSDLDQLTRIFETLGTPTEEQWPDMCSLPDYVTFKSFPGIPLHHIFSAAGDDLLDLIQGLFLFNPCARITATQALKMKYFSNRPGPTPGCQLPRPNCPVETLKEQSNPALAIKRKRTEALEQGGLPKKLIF
CDK7/CycH/MAT1, sequence (P51946 whole entry partner): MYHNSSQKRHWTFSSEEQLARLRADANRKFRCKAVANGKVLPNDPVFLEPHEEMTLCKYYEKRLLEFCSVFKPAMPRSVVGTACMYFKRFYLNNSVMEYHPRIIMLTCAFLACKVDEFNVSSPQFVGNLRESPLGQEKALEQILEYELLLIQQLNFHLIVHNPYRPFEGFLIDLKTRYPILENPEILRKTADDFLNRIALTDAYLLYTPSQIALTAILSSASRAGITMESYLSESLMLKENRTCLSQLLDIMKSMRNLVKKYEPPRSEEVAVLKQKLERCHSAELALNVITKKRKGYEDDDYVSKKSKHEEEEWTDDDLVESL
CDK7/CycH/MAT1, sequence (P51948 whole entry partner): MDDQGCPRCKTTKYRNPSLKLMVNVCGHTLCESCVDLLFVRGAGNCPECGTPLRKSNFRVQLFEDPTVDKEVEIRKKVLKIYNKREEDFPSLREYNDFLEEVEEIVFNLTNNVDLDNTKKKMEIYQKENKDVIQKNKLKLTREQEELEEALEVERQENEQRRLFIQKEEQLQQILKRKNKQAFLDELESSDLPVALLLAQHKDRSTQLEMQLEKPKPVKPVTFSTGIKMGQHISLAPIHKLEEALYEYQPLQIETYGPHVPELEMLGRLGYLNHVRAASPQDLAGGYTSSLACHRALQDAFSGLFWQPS

With `CC(C)c1cnc2c(NCc3ccc(F)cc3F)cc(SC3CCNCC3)nn12` [Compound 56, N-(2,4-difluorobenzyl)-3-isopropyl-6-(piperidin-4-ylthio)imidazo[1,2-b]pyridazin-8-amine hydrochloride], the IC50 (commonly the concentration that inhibits the measured activity by half) at CDK7/CycH/MAT1 was below 100 nM; in assay [1], below 1 µM; in assay [2], below 1 µM; in assay [3], 1 to 5 µM; in assay [4] it was below 1 µM.

For `CC(C)c1cnc2c(NCc3ccccc3C(F)(F)F)cc(SC3CCNCC3F)nn12` (centres unmarked) [Compound 77, 6-((3-fluoropiperidin-4-yl)thio)-3-isopropyl-N-(2-(trifluoromethyl)benzyl)imidazo[1,2-b]pyridazin-8-amine hydrochloride], the IC50 against CDK7/CycH/MAT1 is below 100 nM; in assay [1], 1 to 5 µM; in assay [2], 1 to 5 µM; in assay [3], 1 to 5 µM; in assay [4], 1 to 5 µM.

Compound `COC(=O)[C@@H](N)CSc1cc(NCc2ccccc2)c2ncc(C3CC3)n2n1` [Compound 30, methyl S-(8-(benzylamino)-3-cyclopropylimidazo[1,2-b]pyridazin-6-yl)-L-cysteinate hydrochloride] returned an IC50 against CDK7/CycH/MAT1 of 100 to 1000 nM.

On to `CC(C)c1cnc2c(NCc3ccccc3OC(F)(F)F)cc(OC[C@H]3CNCCO3)nn12` [Compound 47, (R)-3-isopropyl-6-(morpholin-2-ylmethoxy)-N-(2-(trifluoromethoxy)benzyl)imidazo[1,2-b]pyridazin-8-amine hydrochloride], for which the IC50 at CDK7/CycH/MAT1 is 100 to 1000 nM.

The compound `c1ccc(CNc2nc(SC3CCNCC3)cn3c(C4CC4)cnc23)cc1` [Compound 21, N-benzyl-3-cyclopropyl-6-(piperidin-4-ylthio)imidazo[1,2-α]pyrazin-8-amine formate salt] registered an IC50 against CDK7/CycH/MAT1 of 100 to 1000 nM.

On CDK7/CycH/MAT1, `O=C(N1CCC(Sc2cc(NCc3ccccc3)c3ncc(C4CC4)n3n2)CC1)C(F)(F)F` [Compound 20, 1-(4-((8-(benzylamino)-3-cyclopropylimidazo[1,2-b]pyridazin-6-yl)thio)piperidin-1-yl)-2,2,2-trifluoroethan-1-one] had an IC50 above 1000 nM.

Turning to `c1ccc(CNc2cc(NCCC3CNCCO3)nn3c(C4CC4)cnc23)cc1` (centres unmarked) [Compound 19, N8-benzyl-3-cyclopropyl-N6-(2-(morpholin-2-yl)ethyl)imidazo[1,2-b]pyridazine-6,8-diamine formate], the IC50 against CDK7/CycH/MAT1 lay within 100 to 1000 nM.

`COc1ccccc1CNc1cc(SC2CCNCC2F)nn2c(C(C)C)cnc12` (centres unmarked) [Compound 73, 6-((3-fluoropiperidin-4-yl)thio)-3-isopropyl-N-(2-methoxybenzyl)imidazo[1,2-b]pyridazin-8-amine hydrochloride]: the IC50 against CDK7/CycH/MAT1 is below 100 nM; in assay [1], 1 to 5 µM; in assay [2], 1 to 5 µM; in assay [3], 1 to 5 µM; in assay [4] it was 1 to 5 µM.

`Fc1cccc(Nc2cc(O[C@H]3CCCNC3)nn3c(C(F)(F)F)cnc23)c1` [Compound 82, (S)-N-(3-fluorophenyl)-6-(piperidin-3-yloxy)-3-(trifluoromethyl)imidazo[1,2-b]pyridazin-8-amine hydrochloride] registered an IC50 at CDK7/CycH/MAT1 below 100 nM.

Regarding `CC(C)c1cnc2c(NCc3ccccc3OC(F)(F)F)cc(OC3CCNCC3F)nn12` (centres unmarked) [Compound 70, 6-((3-fluoropiperidin-4-yl)oxy)-3-isopropyl-N-(2-(trifluoromethoxy)benzyl)imidazo[1,2-b]pyridazin-8-amine hydrochloride], the 50% inhibitory concentration (IC50) is below 100 nM against CDK7/CycH/MAT1; 1 to 5 µM in assay [1]; 1 to 5 µM in assay [2]; 1 to 5 µM in assay [3]; 1 to 5 µM in assay [4].

Compound `CN1CC[C@H](Oc2cc(Nc3cccc(F)c3)c3ncc(C4CC4)n3n2)C1` [Compound 5, (S)-3-cyclopropyl-N-(3-fluorophenyl)-6-((1-methylpyrrolidin-3-yl)oxy)imidazo[1,2-b]pyridazin-8-amine] showed an IC50 on CDK7/CycH/MAT1 of 100 to 1000 nM.

At CDK7/CycH/MAT1, `CN1CCC[C@H](Nc2cc(NCc3ccccc3)c3ncc(C4CC4)n3n2)C1` [Compound 16, (S)-N8-benzyl-3-cyclopropyl-N6-(1-methylpiperidin-3-yl)imidazo[1,2-b]pyridazine-6,8-diamine] displayed a concentration for half-maximal inhibition (IC50) of 100 to 1000 nM.

As for `c1ccc(CNc2cc(SC3CCNCC3)nn3c(C4CC4)cnc23)cc1` [Compound 18, N-benzyl-3-cyclopropyl-6-(piperidin-4-ylthio)imidazo[1,2-b]pyridazin-8-amine hydrochloride], the IC50 against CDK7/CycH/MAT1 was below 100 nM.

Take `CC(C)c1cnc2c(N[C@@H](C)c3ccccc3)cc(NC3CCNCC3)nn12` [Compound 29, (S)-3-isopropyl-N8-(1-phenylethyl)-N6-(piperidin-4-yl)imidazo[1,2-b]pyridazine-6,8-diamine hydrochloride]: the IC50 at CDK7/CycH/MAT1 lay in the range of 100 to 1000 nM.

`c1ccc(CNc2cc(O[C@@H]3CCCNC3)nn3c(C4CC4)cnc23)cc1` [Compound 13, (R)—N-benzyl-3-cyclopropyl-6-(piperidin-3-yloxy)imidazo[1,2-b]pyridazin-8-amine] registered a half-maximal inhibitory concentration (IC50) against CDK7/CycH/MAT1 of 100 to 1000 nM.

For `CC(C)c1cnc2c(NCc3cccc(OC(F)(F)F)c3)cc(SC3CCNCC3)nn12` [Compound 54, 3-isopropyl-6-(piperidin-4-ylthio)-N-(3-(trifluoromethoxy)benzyl)imidazo[1,2-b]pyridazin-8-amine hydrochloride], the IC50 on CDK7/CycH/MAT1 is below 100 nM.

The compound `CC(C)c1cnc2c(N[C@@H](C)c3ccccc3)cc(OC3CCNCC3)nn12` [Compound 27, hydrochloride] yielded a 50% inhibitory concentration (IC50) against CDK7/CycH/MAT1 of 100 to 1000 nM.

`COc1cc(F)ccc1CNc1cc(SC2CCNCC2)nn2c(C(C)C)cnc12` [Compound 72, N-(4-fluoro-2-methoxybenzyl)-3-isopropyl-6-(piperidin-4-ylthio)imidazo[1,2-b]pyridazin-8-amine hydrochloride]: the IC50 against CDK7/CycH/MAT1 was below 100 nM.

`CN1CC[C@@H](Oc2cc(Nc3cccc(F)c3)c3ncc(C4CC4)n3n2)C1` [Compound 3, (R)-3-cyclopropyl-N-(3-fluorophenyl)-6-((1-methylpyrrolidin-3-yl)oxy)imidazo[1,2-b]pyridazin-8-amine]: at CDK7/CycH/MAT1, the 50% inhibitory concentration (IC50) was in the range of 100 to 1000 nM.

In turn, `FC(F)(F)c1cnc2c(NCc3ccccc3)cc(SC3CCNCC3)nn12` [Compound 78, N-benzyl-6-(piperidin-4-ylthio)-3-(trifluoromethyl)imidazo[1,2-b]pyridazin-8-amine hydrochloride] registered an IC50 against CDK7/CycH/MAT1 below 100 nM.

For `Fc1cccc(Nc2cc(O[C@@H]3CCNC3)nn3c(C4CC4)cnc23)c1` [Compound 6, (R)-3-cyclopropyl-N-(3-fluorophenyl)-6-(pyrrolidin-3-yloxy)imidazo[1,2-b]pyridazin-8-amine], the IC50 against CDK7/CycH/MAT1 was below 100 nM; in assay [1], 1 to 5 µM; in assay [2], below 1 µM; in assay [3], 1 to 5 µM; in assay [4], 1 to 5 µM.

At CDK7/CycH/MAT1, `c1ccc(CNc2cc(O[C@H]3CCNC3)nn3c(C4CC4)cnc23)cc1` [Compound 12, (S)—N-benzyl-3-cyclopropyl-6-(pyrrolidin-3-yloxy)imidazo[1,2-b]pyridazin-8-amine] gave an IC50 of 100 to 1000 nM.

`CC(C)c1cnc2c(Nc3cccc(OC(F)(F)F)c3)cc(SC3CCCNC3)nn12` (centres unmarked) [Compound 58, 3-isopropyl-6-(piperidin-3-ylthio)-N-(3-(trifluoromethoxy)phenyl)imidazo[1,2-b]pyridazin-8-amine hydrochloride] registered an IC50 at CDK7/CycH/MAT1 of 100 to 1000 nM.

`CC(C)c1cnc2c(NCc3ccccc3)cc(S[C@H]3CCCNC3)nn12` (single isomer, unassigned) [Compound 42, hydrochloride] yielded an IC50 at CDK7/CycH/MAT1 below 100 nM.

(Values after patent US20230348475A1, “IMIDAZOPYRIDAZINE AND IMIDAZOPYRAZINE COMPOUNDS AS INHIBITORS OF CDK7” (THE TRANSLATIONAL GENOMICS RESEARCH INSTITUTE, priority 2020, published 2023).)
